Reference: article PMC6009979, “The role of 5-arylalkylamino- and 5-piperazino- moieties on the 7-aminopyrazolo[4,3-d]pyrimidine core in affecting adenosine A1 and A2A receptor affinity and selectivity profiles” (Journal of Enzyme Inhibition and Medicinal Chemistry, 2017)

Tests used:
hA1 AR = target: T1, hA1 AR (Homo sapiens, UniProt P30542); experiment: [3H]DPCPX competition binding to hA1 CHO membranes; details: for Ki: mean ± SEM of four assays, read-out: Binding experiments Ki hA1; for Binding experiments I% hA1: inhibition at 1 μM
T1 construct: expressed in transfected cells; host or cells: CHO cells (membranes)
T1 sequence (P30542 1-326): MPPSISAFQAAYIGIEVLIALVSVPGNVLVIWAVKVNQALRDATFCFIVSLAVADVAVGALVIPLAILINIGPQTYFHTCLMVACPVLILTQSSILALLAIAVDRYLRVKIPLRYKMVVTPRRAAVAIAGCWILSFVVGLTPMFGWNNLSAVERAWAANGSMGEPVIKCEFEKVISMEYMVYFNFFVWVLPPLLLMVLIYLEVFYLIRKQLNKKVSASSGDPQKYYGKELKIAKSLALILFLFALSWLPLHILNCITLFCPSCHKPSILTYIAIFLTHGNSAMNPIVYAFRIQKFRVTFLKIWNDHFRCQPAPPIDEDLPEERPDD

hA2A AR = target: T2, hA2A AR (Homo sapiens, UniProt P29274); experiment: [3H]ZM241385 competition binding to hA2A CHO membranes; details: [3H]ZM241385, hA2A CHO; for Ki: mean ± SEM of four assays, read-out: Binding experiments Ki hA2A; for Binding experiments I% hA2A: inhibition at 1 μM
T2 construct: expressed in transfected cells; host or cells: CHO cells (membranes)
T2 sequence (P29274 whole entry): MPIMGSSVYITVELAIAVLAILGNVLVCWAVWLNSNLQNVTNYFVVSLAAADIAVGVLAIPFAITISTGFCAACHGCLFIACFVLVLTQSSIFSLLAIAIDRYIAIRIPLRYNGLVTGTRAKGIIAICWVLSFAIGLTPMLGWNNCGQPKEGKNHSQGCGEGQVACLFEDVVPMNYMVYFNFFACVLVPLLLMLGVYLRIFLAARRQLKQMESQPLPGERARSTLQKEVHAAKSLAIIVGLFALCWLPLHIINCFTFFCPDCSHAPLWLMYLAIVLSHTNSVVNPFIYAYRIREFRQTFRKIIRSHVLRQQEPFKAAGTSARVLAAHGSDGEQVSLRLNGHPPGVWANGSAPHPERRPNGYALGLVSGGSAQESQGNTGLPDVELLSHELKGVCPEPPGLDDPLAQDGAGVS

hA3 AR = target: T3, hA3 AR (Homo sapiens, UniProt P0DMS8); experiment: [125I]AB-MECA competition binding to hA3 CHO membranes; details: for Ki: mean ± SEM of four assays, read-out: Binding experiments Ki hA3; for inhibition at 1 µM / inhibition: read-out: Binding experiments I% hA3, inhibition at 1 μM
T3 construct: expressed in transfected cells; host or cells: CHO cells (membranes)
T3 sequence (P0DMS8 1-318): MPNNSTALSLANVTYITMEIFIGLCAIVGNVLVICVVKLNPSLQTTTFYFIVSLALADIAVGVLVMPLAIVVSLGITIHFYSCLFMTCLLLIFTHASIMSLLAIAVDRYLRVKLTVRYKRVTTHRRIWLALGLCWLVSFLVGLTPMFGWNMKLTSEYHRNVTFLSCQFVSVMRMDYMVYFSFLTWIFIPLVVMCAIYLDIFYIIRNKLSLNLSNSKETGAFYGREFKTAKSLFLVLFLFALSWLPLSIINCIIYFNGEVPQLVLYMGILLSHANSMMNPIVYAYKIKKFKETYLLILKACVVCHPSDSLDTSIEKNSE
Experimental: All synthesized compounds were tested to evaluate their affinity at human A1, A2A and A3 ARs. Displacement experiments of [^3H]DPCPX (1 nM) to hA1 CHO membranes (50 µg of protein/assay) and at least 6–8 different concentrations of antagonists for 120 min at 25 °C in 50 mM Tris-HCl buffer pH 7.4 were performed. Non-specific binding was determined in the presence 1 µM of DPCPX (≤10% of the total binding). […] Competition binding experiments to hA3 CHO membranes (50 µg of protein/assay) were performed incubating 0.5 nM [^125I]AB-MECA, 50 mM Tris-HCl buffer, 10 mM MgCl2, 1 mM EDTA, pH 7.4 and at least 6–8 different concentrations of examined ligands for 60 min at 37 °C[54]. Non-specific binding was defined as binding in the presence of 1 µM AB-MECA and was about 20% of total binding. Bound and free radioactivity were separated by filtering the assay mixture through Whatman GF/B glass fiber filters by using a Brandel cell harvester. The filter bound radioactivity was counted by Scintillation Counter Packard Tri Carb 2810 TR with an efficiency of 58%.
(§1) The protein concentration was determined according to a Bio-Rad method[56] with bovine albumin as a standard reference. Inhibitory binding constant (Ki) values were calculated from those of IC50 according to Cheng & Prusoff equation Ki = IC50/(1 + [C*]/KD*), where [C*] is the concentration of the radioligand and KD* its dissociation constant. A weighted non-linear least-squares curve fitting program LIGAND[58] was used for computer analysis of inhibition experiments. IC50 values obtained in cyclic AMP assay were calculated by non-linear regression analysis using the equation for a sigmoid concentration–response curve (Graph-PAD Prism, San Diego, CA).

hA2B AR = target: T4, hA2B AR (Homo sapiens, UniProt P29275); experiment: cAMP assay in hA2B CHO cells stimulated by 200 nM NECA; assay type: cell-based; details: read-out: cAMP assays I% hA2B
T4 construct: expressed in transfected cells; host or cells: CHO cells
T4 sequence (P29275 1-332): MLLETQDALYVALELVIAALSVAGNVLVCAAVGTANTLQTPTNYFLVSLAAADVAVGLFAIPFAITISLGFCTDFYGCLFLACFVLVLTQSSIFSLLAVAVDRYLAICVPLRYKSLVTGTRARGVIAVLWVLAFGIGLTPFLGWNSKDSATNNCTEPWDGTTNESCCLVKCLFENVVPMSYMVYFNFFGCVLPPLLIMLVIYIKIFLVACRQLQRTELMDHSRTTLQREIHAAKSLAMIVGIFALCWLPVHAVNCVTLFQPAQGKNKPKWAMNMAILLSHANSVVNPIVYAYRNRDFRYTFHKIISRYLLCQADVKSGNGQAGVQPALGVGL
Experimental: CHO cells transfected with hA2B AR subtypes were washed with phosphate-buffered saline, diluted trypsin and centrifuged for 10 min at 200 g. The cells (1 × 10^6 cells/assay) were suspended in 0.5 ml of incubation mixture (mM): NaCl 15, KCl 0.27, NaH2PO4 0.037, MgSO4 0.1, CaCl2 0.1, Hepes 0.01, MgCl2 1, glucose 0.5, pH 7.4 at 37 °C, 2 IU/ml adenosine deaminase and 4–(3-butoxy-4-methoxybenzyl)-2-imidazolidinone (Ro 20–1724) as phosphodiesterase inhibitor and preincubated for 10 min in a shaking bath at 37 °C. The potency of antagonists to the A2B AR was determined by the inhibition of NECA (200 nM)-induced cyclic AMP production. The reaction was terminated by the addition of cold 6% trichloroacetic acid (TCA). The TCA suspension was centrifuged at 2000 g for 10 min at 4 °C and the supernatant was extracted four times with water saturated diethyl ether. The final aqueous solution was tested for cyclic AMP levels by a competition protein binding assay. Samples of cyclic AMP standard (0–10 pmoles) were added to each test tube containing [^3H] cyclic AMP and incubation buffer (trizma base 0.1 M, aminophylline 8.0 mM, 2-mercaptoethanol 6.0 mM, pH 7.4). The binding protein prepared from beef adrenals was added to the samples previously incubated at 4 °C for 150 min, and, after the addition of charcoal, was centrifuged at 2000 g for 10 min. The clear supernatant was counted in a Scintillation Counter Packard Tri Carb 2810 TR with an efficiency of 58%.
as §1

| Compound | Ki (hA1 AR) [nM] | Ki (hA2A AR) [nM] | Ki (hA3 AR) [nM] | inhibition at 1 µM (hA2B AR) [%] | Binding experiments I% hA1 (hA1 AR) [%] | Binding experiments I% hA2A (hA2A AR) [%] | inhibition at 1 µM (hA3 AR) [%] | inhibition (hA3 AR) [%] |
| --- | --- | --- | --- | --- | --- | --- | --- | --- |
| COc1ccc(Nc2nc(N)c3nn(-c4ccccc4)cc3n2)cc1 [Compound 2, 7-Amino-5-(4-methoxyphenyl)amino-2-phenyl-2H-pyrazolo[4,3-d]pyrimidine] | – | – | 27 ± 3 | 1 | 33 | 8 | – | – |
| Nc1nc(Nc2ccc(Cl)cc2Cl)nc2cn(-c3ccccc3)nc12 [Compound 3, 7-Amino-5–(2,4-dichlorophenyl)amino-2-phenyl-2H-pyrazolo[4,3-d]pyrimidine] | – | – | 61 ± 8 | 2 | 1 | 1 | – | – |
| Nc1nc(Nc2ccc(O)cc2)nc2cn(-c3ccccc3)nc12 [Compound 4, 7-Amino-5-(4-hydroxyphenyl)amino-2-phenyl-2H-pyrazolo[4,3-d]pyrimidine] | 481 ± 42 | – | – | 10 | – | 40 | 8 | – |
| Nc1nc(NCc2ccccc2)nc2cn(-c3ccccc3)nc12 [Compound 5, 7-Amino-5-benzylamino-2-phenyl-2H-pyrazolo[4,3-d]pyrimidine] | 25 ± 3 | 123 ± 11 | 28 ± 3 | 2 | – | – | – | – |
| Cn1cc2nc(Nc3ccccc3)nc(N)c2n1 [Compound 8, 7-Amino-2-methyl-5-phenylamino-2H-pyrazolo[4,3-d]pyrimidine] | – | – | – | 1 | 1 | 4 | 1 | – |
| Cn1cc2nc(NCc3ccccc3)nc(N)c2n1 [Compound 9, 7-Amino-5-benzylamino-2-methyl-2H-pyrazolo[4,3-d]pyrimidine] | – | – | – | 1 | 9 | 1 | 20 | – |
| Nc1nc(NCCc2ccc(O)cc2)nc2cn(-c3ccccc3)nc12 [Compound 12, 7-Amino-5-(4-hydroxyphenethyl)amino-2-phenyl-2H-pyrazolo[4,3-d]pyrimidine] | – | 150 ± 14 | – | 1 | 27 | – | 1 | – |
| COc1ccc(CCNc2nc(N)c3nn(-c4ccccc4)cc3n2)cc1OC [Compound 13, 7-Amino-5-[2-(3,4-dimethoxyphenyl)ethyl]amino-2-phenyl-2H-pyrazolo[4,3-d]pyrimidine] | 415 ± 39 | 189 ± 18 | – | 17 | – | – | 22 | – |
| Nc1nc(N2CCN(Cc3ccccc3)CC2)nc2cn(-c3ccccc3)nc12 [Compound 16, 7-Amino-5-(4-benzylpiperazin-1-yl)-2-phenyl-2H-pyrazolo[4,3-d]pyrimidine] | 162 ± 14 | – | – | 1 | – | 1 | – | 1 |
| Nc1nc(N2CCN(Cc3ccc(F)cc3Cl)CC2)nc2cn(-c3ccccc3)nc12 [Compound 19, 7-Amino-5-(4-(2-chloro-4-fluoro)benzylpiperazin-1-yl)-2-phenyl-2H-pyrazolo[4,3-d]pyrimidine] | 193 ± 17 | – | – | 2 | – | 29 | – | 1 |

Next, values leading:

| Ki (hA1 AR) [nM] | Ki (hA2A AR) [nM] | Ki (hA3 AR) [nM] | inhibition at 1 µM (hA2B AR) [%] | Binding experiments I% hA1 (hA1 AR) [%] | Binding experiments I% hA2A (hA2A AR) [%] | inhibition at 1 µM (hA3 AR) [%] | inhibition (hA3 AR) [%] | Compound |
| --- | --- | --- | --- | --- | --- | --- | --- | --- |
| 67 ± 5 | 412 ± 37 | 13 ± 2 | 2 | – | – | – | – | Nc1nc(Nc2ccccc2)nc2cn(-c3ccccc3)nc12 [Compound 1, 7-Amino-5-phenylamino-2-phenyl-2H-pyrazolo[4,3-d]pyrimidine] |
| 11.5 ± 1.2 | – | – | 1 | – | 40 | 38 | – | Nc1nc(NCCc2ccccc2)nc2cn(-c3ccccc3)nc12 [Compound 6, 7-Amino-5-(2-phenylethyl)amino-2-phenyl-2H-pyrazolo[4,3-d]pyrimidine] |
| 785 ± 72 | – | – | 1 | – | 29 | 24 | – | Nc1nc(NCCCc2ccccc2)nc2cn(-c3ccccc3)nc12 [Compound 7, 7-Amino-5-(3-phenylpropyl)-2-phenyl-2H-pyrazolo[4,3-d]pyrimidines] |
| – | – | – | 1 | 19 | 1 | 1 | – | Nc1nc(NCc2ccccc2)nc2cn(Cc3ccccc3)nc12 [Compound 10, 7-Amino-2-benzyl-5-benzylamino-2H-pyrazolo[4,3-d]pyrimidine] |
| 153 ± 11 | – | – | 1 | – | 26 | 19 | – | COc1ccc(CCNc2nc(N)c3nn(-c4ccccc4)cc3n2)cc1 [Compound 11, 7-Amino-5-[2–(4-methoxyphenyl)ethyl]amino-2-phenyl-2H-pyrazolo[4,3-d]pyrimidine] |
| 71 ± 6 | 238 ± 24 | – | 1 | – | – | 3 | – | Nc1nc(NCCc2ccc(O)c(O)c2)nc2cn(-c3ccccc3)nc12 [Compound 14, 7-Amino-5-(3,4-dihydroxyphenethyl)amino-2-phenyl-2H-pyrazolo[4,3-d]pyrimidine] |
| 647 ± 53 | – | – | 1 | – | 20 | – | 20 | Nc1nc(N2CCN(c3ccccc3)CC2)nc2cn(-c3ccccc3)nc12 [Compound 15, 7-Amino-2-phenyl-5-(4-phenylpiperazin-1-yl)-2H-pyrazolo[4,3-d]pyrimidine] |
| 518 ± 42 | – | – | 1 | – | 40 | – | 40 | Nc1nc(N2CCN(CCc3ccccc3)CC2)nc2cn(-c3ccccc3)nc12 [Compound 17, 7-Amino-5-(4-phenylethylpiperazin-1-yl)-2-phenyl-2H-pyrazolo[4,3-d]pyrimidine] |
| 204 ± 18 | – | – | 1 | – | 34 | – | 39 | Nc1nc(N2CCN(Cc3c(F)cc(F)cc3F)CC2)nc2cn(-c3ccccc3)nc12 [Compound 18, 7-Amino-5-(4-(2,4,6-trifluoro)benzylpiperazin-1-yl)-2-phenyl-2H-pyrazolo[4,3-d]pyrimidine] |
